Substitutions are numbered along the chain they refer to. Like-named read-outs stand apart in the source and are kept apart here. Where a SMILES comes first, the peptide text is derived from it. [ ]: non-standard residue; d: D form. The star is where a group is joined. 5FAM = O=C1OC2(c3ccc(O)cc3Oc3cc(O)ccc32)c2ccc(C(=O)*)cc21; pT = C[C@@H](OP(=O)(O)O)[C@H](N)C(=O)O; pS = N[C@@H](COP(=O)(O)O)C(=O)O
Key:
Rad4-BRCT1,2 WT = target: T1, Rad4-BRCT1,2 WT (Schizosaccharomyces pombe, UniProt P32372); test: Fluorescence polarisation titration, Rad4-BRCT1,2 wild-type; settings: FP, fluorescein-peptide 200 nM, HEPES pH 7.5, room temperature, one-site fit, 4 replicates; ND = low-affinity non-specific response, no binding curve
T1 construct: made in house; host or cells: E. coli BL21(DE3)
T1 sequence (P32372 1-186 limits assumed): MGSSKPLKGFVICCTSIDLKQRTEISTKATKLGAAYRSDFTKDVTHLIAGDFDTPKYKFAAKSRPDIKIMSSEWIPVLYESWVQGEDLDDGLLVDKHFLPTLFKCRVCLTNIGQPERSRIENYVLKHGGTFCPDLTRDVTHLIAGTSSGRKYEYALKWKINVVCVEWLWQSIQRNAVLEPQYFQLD
Experimental: (§1) Fluorescein-labelled peptides (Peptide Protein Research Ltd, Fareham, UK) at a concentration of 200 nM, were incubated at room temperature with increasing concentrations of recombinant protein in 25 mM HEPES pH 7.5, 150 mM NaCl, 1 mM EDTA, 0.25 mM TCEP, 0.02% (v/v) Tween-20. Four parallel replicates of each titration were dispensed into a black 96-well polypropylene plate (VWR, Lutterworth, UK) for measurement. Fluorescence polarisation was measured in a CLARIOstar multimode microplate reader (BMG Labtech, Aylesbury, UK). Binding curves represent the mean of 4 independent experiments, with error bars indicating one standard deviation. All data were fitted by non-linear regression, to a one site-specific binding model in Prism seven for Mac OS X (v 7.0d, GraphPad Software) in order to calculate the reported dissociation constants (Kd). Low-affinity non-specific responses for which a binding curve could not be determined are marked as ND.

Rad4-BRCT1,2 K56E = target: T2, Rad4-BRCT1,2 K56E (Schizosaccharomyces pombe, UniProt P32372, K56E); test: Fluorescence polarisation titration, Rad4-BRCT1,2 K56E (BRCT1 mutant); assay type: binding; settings: FP, fluorescein-peptide 200 nM, HEPES pH 7.5, room temperature, one-site fit, 4 replicates
T2 construct: made in house; host or cells: E. coli BL21(DE3)
T2 sequence (P32372 1-186 K56E limits assumed): T1 sequence (P32372 1-186 limits assumed) with K56E
Experimental: as §1

Rad4-BRCT1,2 K151E = target: T3, Rad4-BRCT1,2 K151E (Schizosaccharomyces pombe, UniProt P32372, K151E); test: Fluorescence polarisation titration, Rad4-BRCT1,2 K151E (BRCT2 mutant); settings: FP, fluorescein-peptide 200 nM, HEPES pH 7.5, room temperature; ND = low-affinity non-specific response, no binding curve
T3 construct: made in house; host or cells: E. coli BL21(DE3)
T3 sequence (P32372 1-186 K151E limits assumed): T1 sequence (P32372 1-186 limits assumed) with K151E
Experimental: as §1

Rad4-BRCT3,4 = target: T4, Rad4-BRCT3,4 (Schizosaccharomyces pombe, UniProt P32372); test: Fluorescence polarisation titration, Rad4-BRCT3,4; settings: FP, fluorescein-peptide 200 nM, HEPES pH 7.5, room temperature; ND = low-affinity non-specific response, no binding curve
T4 construct: made in house; host or cells: E. coli BL21(DE3)
T4 sequence (P32372 291-494 limits assumed): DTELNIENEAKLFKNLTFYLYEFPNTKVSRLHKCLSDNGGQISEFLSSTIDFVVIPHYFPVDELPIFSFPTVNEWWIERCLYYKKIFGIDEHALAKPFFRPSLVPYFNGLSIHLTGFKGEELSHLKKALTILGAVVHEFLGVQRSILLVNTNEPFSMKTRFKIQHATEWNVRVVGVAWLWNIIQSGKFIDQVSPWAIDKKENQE
Experimental: as §1

TOPBP1-BRCT0,1,2 WT = target: T5, TOPBP1-BRCT0,1,2 WT (Homo sapiens, UniProt Q92547); test: Fluorescence polarisation titration, TOPBP1-BRCT0,1,2 wild-type; assay type: binding
T5 construct: made in house; host or cells: E. coli BL21(DE3)
T5 sequence (Q92547 1-290 limits assumed): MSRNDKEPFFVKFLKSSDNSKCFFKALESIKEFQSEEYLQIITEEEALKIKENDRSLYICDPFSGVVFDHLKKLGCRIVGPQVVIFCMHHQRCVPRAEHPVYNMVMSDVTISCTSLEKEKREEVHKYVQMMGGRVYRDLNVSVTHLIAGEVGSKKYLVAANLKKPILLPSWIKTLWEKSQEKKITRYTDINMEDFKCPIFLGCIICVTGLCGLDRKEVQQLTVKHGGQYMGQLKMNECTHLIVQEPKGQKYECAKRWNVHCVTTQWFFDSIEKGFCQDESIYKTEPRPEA
Experimental: as §1

TOPBP1-BRCT0,1,2 K155E = target: T6, TOPBP1-BRCT0,1,2 K155E (Homo sapiens, UniProt Q92547, K155E); test: Fluorescence polarisation titration, TOPBP1-BRCT0,1,2 K155E (BRCT1 mutant); assay type: binding
T6 construct: made in house; host or cells: E. coli BL21(DE3)
T6 sequence (Q92547 1-290 K155E limits assumed): as the sequence (Q92547 1-290 limits assumed) above, with K155E counted along it
Experimental: as §1

TOPBP1-BRCT0,1,2 K250E = target: T7, TOPBP1-BRCT0,1,2 K250E (Homo sapiens, UniProt Q92547, K250E); test: Fluorescence polarisation titration, TOPBP1-BRCT0,1,2 K250E (BRCT2 mutant); assay type: binding
T7 construct: made in house; host or cells: E. coli BL21(DE3)
T7 sequence (Q92547 1-290 K250E limits assumed): as the sequence (Q92547 1-290 limits assumed) above, with K250E counted along it
Experimental: as §1

TOPBP1-BRCT4,5 = target: T8, TOPBP1-BRCT4,5 (Homo sapiens, UniProt Q92547); test: Fluorescence polarisation titration, TOPBP1-BRCT4,5; assay type: binding; settings: FP, fluorescein-peptide 200 nM, HEPES pH 7.5, room temperature, one-site fit, 4 replicates; ND = low-affinity non-specific response, no binding curve
T8 construct: made in house; host or cells: E. coli BL21(DE3)
T8 sequence (Q92547 549-746 limits assumed): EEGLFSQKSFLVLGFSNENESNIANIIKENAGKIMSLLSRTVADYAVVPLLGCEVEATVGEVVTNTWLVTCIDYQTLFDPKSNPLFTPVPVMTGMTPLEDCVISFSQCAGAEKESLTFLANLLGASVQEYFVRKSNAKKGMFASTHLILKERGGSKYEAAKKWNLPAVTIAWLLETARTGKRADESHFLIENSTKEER
Experimental: as §1

TOPBP1-BRCT7,8 = target: T9, TOPBP1-BRCT7,8 (Homo sapiens, UniProt Q92547); test: Fluorescence polarisation titration, TOPBP1-BRCT7,8; assay type: binding; settings: FP, fluorescein-peptide 200 nM, HEPES pH 7.5, room temperature, one-site fit; ND = low-affinity non-specific response, no binding curve
T9 construct: made in house; host or cells: E. coli BL21(DE3)
T9 sequence (Q92547 1264-1493 limits assumed): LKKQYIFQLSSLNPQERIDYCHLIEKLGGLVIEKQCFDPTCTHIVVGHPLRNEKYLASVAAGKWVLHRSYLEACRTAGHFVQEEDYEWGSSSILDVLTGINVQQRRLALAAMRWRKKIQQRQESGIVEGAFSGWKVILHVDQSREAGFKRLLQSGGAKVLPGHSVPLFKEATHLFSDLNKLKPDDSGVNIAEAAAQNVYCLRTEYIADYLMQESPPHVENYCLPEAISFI
Experimental: as §1

[1] = FP, fluorescein-peptide 200 nM, HEPES pH 7.5, room temperature, one-site fit, 4 replicates
[2] = FP, fluorescein-peptide 200 nM, HEPES pH 7.5, room temperature, one-site fit, 4 replicates, read-out: Kd

In the case of CSCC[C@H](NC(=O)[C@@H](NC(=O)CNC(=O)CNC(=O)[C@H](Cc1ccc(O)cc1)NC(=O)CNC(=O)c1ccc2c(c1)C(=O)OC21c2ccc(O)cc2Oc2cc(O)ccc21)C(C)C)C(=O)N[C@H](C(=O)N[C@H](C(=O)N1CCC[C@H]1C(=O)N[C@@H](CC(N)=O)C(=O)N[C@H](C(=O)N1CCC[C@H]1C(=O)N[C@@H](CCC(N)=O)C(=O)N[C@@H](CCCCN)C(=O)N1CCC[C@H]1C(=O)N[C@@H](CC(N)=O)C(=O)N[C@@H](CC(C)C)C(=O)N[C@@H](CCC(N)=O)C(=O)O)[C@@H](C)OP(=O)(O)O)C(C)C)[C@@H](C)O [Mdb1 pT113] (5FAM-GYGGVMTVPN[pT]PQKPNLQ-OH), the Kd (Rad4-BRCT1,2 WT) is reported as “low micromolar affinity”, the Kd (Rad4-BRCT1,2 K56E) is reported as “largely unaffected” and the Kd (Rad4-BRCT1,2 K151E) is reported as “substantially reduced compared to wild-type”. For the same compound, the Kd (Rad4-BRCT3,4) was “no binding”.

CC[C@H](C)[C@H](NC(=O)CNC(=O)[C@H](Cc1ccc(O)cc1)NC(=O)[C@H](CCCCN)NC(=O)[C@H](CC(=O)O)NC(=O)[C@H](CCC(=O)O)NC(=O)[C@@H]1CCCN1C(=O)[C@@H](NC(=O)[C@H](CC(=O)O)NC(=O)[C@H](CCCCN)NC(=O)[C@@H](NC(=O)[C@H](CC(C)C)NC(=O)[C@@H](NC(=O)[C@@H]1CCCN1C(=O)CNC(=O)CNC(=O)[C@H](Cc1ccc(O)cc1)NC(=O)CN)C(C)C)C(C)C)[C@@H](C)OP(=O)(O)O)C(=O)O [RHNO1 pT202] (H-GYGGPVLVKD[pT]PEDKYGI-OH; N-terminus and C-terminus assumed) was tested, and the Kd (TOPBP1-BRCT0,1,2 WT; [1]) was “sub-micromolar affinity”, the Kd (TOPBP1-BRCT0,1,2 WT; [2]) was less than 200 nM and the “Fold tighter binding than RAD9-pS387” value (TOPBP1-BRCT0,1,2 WT; RHNO1-pT202 versus RAD9-pS387, binding to TOPBP1 BRCT1) was ~ 10 fold. The Kd (TOPBP1-BRCT0,1,2 K155E; FP, fluorescein-peptide 200 nM, HEPES pH 7.5, room temperature, one-site fit, 4 replicates, ND = low-affinity non-specific response, no binding curve) was “no binding was observed”, the Kd (TOPBP1-BRCT0,1,2 K250E; [1]) was “comparable affinity to the wild-type” and the Kd (TOPBP1-BRCT0,1,2 K250E; [2]) was less than 200 nM. The Kd (TOPBP1-BRCT4,5) was “did not show any measurable binding” and the Kd (TOPBP1-BRCT7,8) was “did not show any measurable binding”.

In the case of CC[C@H](C)[C@H](NC(=O)[C@H](CCC(N)=O)NC(=O)[C@H](CCCCN)NC(=O)[C@H](Cc1c[nH]cn1)NC(=O)[C@@H](NC(=O)[C@@H]1CCCN1C(=O)[C@@H](NC(=O)[C@H](CCC(=O)O)NC(=O)[C@H](C)NC(=O)[C@@H](NC(=O)[C@H](CO)NC(=O)[C@H](CCCCN)NC(=O)[C@@H](NC(=O)[C@H](CC(C)C)NC(=O)CNC(=O)[C@H](Cc1ccc(O)cc1)NC(=O)CNC(=O)c1ccc2c(c1)C(=O)OC21c2ccc(O)cc2Oc2cc(O)ccc21)[C@@H](C)O)C(C)C)[C@@H](C)OP(=O)(O)O)C(C)C)C(=O)N[C@@H](CO)C(=O)O [Treslin pT969] (5FAM-GYGLTKSVAE[pT]PVHKQIS-OH), the Kd (TOPBP1-BRCT0,1,2 WT; read-out: Kd) is reported as 940 ± 60 nM and the Kd (TOPBP1-BRCT0,1,2 K155E; read-out: Kd) is reported as 1000 ± 60 nM.

In the case of CC[C@H](C)[C@H](NC(=O)[C@H](CCC(=O)O)NC(=O)[C@H](CC(=O)O)NC(=O)CNC(=O)[C@H](CCCCN)NC(=O)[C@H](CCC(=O)O)NC(=O)[C@@H]1CCCN1C(=O)[C@H](COP(=O)(O)O)NC(=O)[C@H](CCC(=O)O)NC(=O)[C@H](CCC(=O)O)NC(=O)[C@@H](NC(=O)[C@@H](NC(=O)CNC(=O)[C@@H](NC(=O)[C@H](CC(=O)O)NC(=O)CNC(=O)[C@H](Cc1ccc(O)cc1)NC(=O)CNC(=O)c1ccc2c(c1)C(=O)OC21c2ccc(O)cc2Oc2cc(O)ccc21)[C@@H](C)CC)C(C)C)C(C)C)C(=O)O [Treslin pT1001] (5FAM-GYGDIGVVEE[pS]PEKGDEI-OH), the Kd (TOPBP1-BRCT0,1,2 WT; read-out: Kd) is reported as 600 ± 30 nM, the Kd (TOPBP1-BRCT0,1,2 K155E; read-out: Kd) is reported as 730 ± 40 nM and the Kd (TOPBP1-BRCT0,1,2 K250E; read-out: Kd) is reported as 350 ± 130 nM.

From PMC6175577, “BRCT domains of the DNA damage checkpoint proteins TOPBP1/Rad4 display distinct specificities for phosphopeptide ligands” (eLife, 2018)
